Experimental data as given in PubChem BioAssay AID256 (DTP/NCI, 2004).
Toxic doses and inconclusive results are not listed. Rule for the calls: active = survival T/C of 150% or more; inactive = T/C below 125% in these data.

Tested on: CD2F1 mice, L1210 leukemia ip, survival T/C
Experiment: NCI In Vivo Anticancer Drug Screen. Data for tumor model L1210 Leukemia (intraperitoneal) in CD2F1 (CDF1) mice
Conditions: endpoint: mean survival time, higher = longer survival
How it was run: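 Read-out first: treated-group measurement over vehicle-control measurement, expressed as a ratio. Animals bore a transplanted tumor line and were dosed with compound or vehicle.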

[1] = dose: 50.0 mg/kg/injection, schedule: Q01DX009 (ip), vehicle: Klucel (hydroxypropylcellulose) (HPC)
[2] = dose: 100.0 mg/kg/injection, schedule: Q01DX009 (ip), vehicle: Klucel (hydroxypropylcellulose) (HPC)
[3] = dose: 200.0 mg/kg/injection, schedule: Q01DX009 (ip), vehicle: Klucel (hydroxypropylcellulose) (HPC)
[4] = dose: 400.0 mg/kg/injection, schedule: Q01DX009 (ip), vehicle: Klucel (hydroxypropylcellulose) (HPC)
[5] = dose: 100.0 mg/kg/injection, schedule: Q01DX009 (ip), vehicle: saline with Tween-80
[6] = dose: 200.0 mg/kg/injection, schedule: Q01DX009 (ip), vehicle: saline with Tween-80
[7] = dose: 400.0 mg/kg/injection, schedule: Q01DX009 (ip), vehicle: saline with Tween-80
[8] = dose: 100.0 mg/kg/injection, schedule: Q04DX003 (ip), vehicle: saline with Tween-80
[9] = dose: 200.0 mg/kg/injection, schedule: Q04DX003 (ip), vehicle: saline with Tween-80
[10] = dose: 400.0 mg/kg/injection, schedule: Q04DX003 (ip), vehicle: saline with Tween-80
[11] = dose: 100.0 mg/kg/injection, schedule: Q01DX001 (ip), vehicle: saline
[12] = dose: 200.0 mg/kg/injection, schedule: Q01DX001 (ip), vehicle: saline

Measured: T/C

COC(=O)C1=NNC(C(=O)OC)=C(c2ccccc2)C(c2ccccc2)=N1
inactive: dose: 12.5 mg/kg/injection, schedule: Q01DX009 (ip), vehicle: Klucel (hydroxypropylcellulose) (HPC) 95 % of control | dose: 25.0 mg/kg/injection, schedule: Q01DX009 (ip), vehicle: Klucel (hydroxypropylcellulose) (HPC) 91 % of control | [1] 98 % of control | [2] 101 % of control | [3] 109 % of control | [4] 114 % of control

ICC(CI)(CI)CI
inactive: dose: 100.0 mg/kg/injection, schedule: Q01DX001 (ip), vehicle: saline with Tween-80 100 % of control | dose: 200.0 mg/kg/injection, schedule: Q01DX001 (ip), vehicle: saline with Tween-80 93 % of control | dose: 400.0 mg/kg/injection, schedule: Q01DX001 (ip), vehicle: saline with Tween-80 100 % of control

O=C(O)C1CC(Br)C(Br)CC1C(=O)O (stereo unspecified)
inactive: [5] 95 % of control | [6] 100 % of control | [7] 91 % of control

CC(C)(C)OC(=O)NCC(=O)ON1C(=O)CCC1=O
inactive: [8] 96 % of control | [9] 87 % of control

CCCCCCCCCCCCN=C(N)C(N)=NCCCCCCCCCCCC
inactive: dose: 25.0 mg/kg/injection, schedule: Q04DX002 (ip), vehicle: other 93 % of control | dose: 50.0 mg/kg/injection, schedule: Q04DX002 (ip), vehicle: other 93 % of control | dose: 100.0 mg/kg/injection, schedule: Q04DX002 (ip), vehicle: other 116 % of control

NN(C(=O)c1ccccc1)C1CCCCC1
inactive: [5] 97 % of control

O=C1NC(=O)C2CCCCC12 (stereo unspecified)
inactive: [5] 100 % of control | [8] 97 % of control | [6] 95 % of control | [9] 101 % of control | [7] 95 % of control | [10] 95 % of control

Cc1c(Cl)cccc1NS(=O)(=O)c1cccc([N+](=O)[O-])c1
inactive: [8] 88 % of control | [9] 92 % of control | [10] 86 % of control

CCOC(=O)C(OCC)C1=Cc2ccccc2CC1 (stereo unspecified)
inactive: dose: 12.5 mg/kg/injection, schedule: Q01DX005 (ip), vehicle: Klucel (hydroxypropylcellulose) (HPC) 97 % of control | dose: 25.0 mg/kg/injection, schedule: Q01DX005 (ip), vehicle: Klucel (hydroxypropylcellulose) (HPC) 97 % of control | dose: 50.0 mg/kg/injection, schedule: Q01DX005 (ip), vehicle: Klucel (hydroxypropylcellulose) (HPC) 98 % of control | dose: 100.0 mg/kg/injection, schedule: Q01DX005 (ip), vehicle: Klucel (hydroxypropylcellulose) (HPC) 93 % of control | dose: 200.0 mg/kg/injection, schedule: Q01DX005 (ip), vehicle: Klucel (hydroxypropylcellulose) (HPC) 89 % of control | dose: 400.0 mg/kg/injection, schedule: Q01DX005 (ip), vehicle: Klucel (hydroxypropylcellulose) (HPC) 98 % of control

O=C1N(c2ccccc2)CCS1(=O)=O
inactive: dose: 9.5 mg/kg/injection, schedule: Q01DX001 (ip), vehicle: other 101 % of control | dose: 19.0 mg/kg/injection, schedule: Q01DX001 (ip), vehicle: other 100 % of control | dose: 38.0 mg/kg/injection, schedule: Q01DX001 (ip), vehicle: other 106 % of control

C/C(=C\Br)CO
inactive: dose: 50.0 mg/kg/injection, schedule: Q01DX009 (ip), vehicle: acetone 100 % of control | dose: 100.0 mg/kg/injection, schedule: Q01DX009 (ip), vehicle: acetone 96 % of control | dose: 200.0 mg/kg/injection, schedule: Q01DX009 (ip), vehicle: acetone 96 % of control

CC(=O)CCCOC(C)=O
inactive: [11] 103 % of control | [12] 100 % of control | dose: 400.0 mg/kg/injection, schedule: Q01DX001 (ip), vehicle: saline 100 % of control

S=C=NCc1cccc(CN=C=S)c1
inactive: dose: 1.5 mg/kg/injection, schedule: Q01DX009 (ip), vehicle: saline with Tween-80 98 % of control | dose: 3.0 mg/kg/injection, schedule: Q01DX009 (ip), vehicle: saline with Tween-80 101 % of control | dose: 6.25 mg/kg/injection, schedule: Q04DX003 (ip), vehicle: saline 101 % of control | dose: 12.5 mg/kg/injection, schedule: Q04DX003 (ip), vehicle: saline 103 % of control | dose: 25.0 mg/kg/injection, schedule: Q04DX003 (ip), vehicle: saline 101 % of control

C=CCCCCCCCCC(=O)NCC1CCCCO1 (stereo unspecified)
inactive: [8] 94 % of control | [9] 98 % of control | [10] 93 % of control

C1CCC(C2CCCC[N-]2)[N-]C1.C1CCC(C2CCCC[N-]2)[N-]C1.[Cl][Ru][Cl] (stereo unspecified)
inactive: dose: 3.13 mg/kg/injection, schedule: Q04DX003 (ip), vehicle: distilled water + Tween-80 93 % of control | dose: 6.25 mg/kg/injection, schedule: Q04DX003 (ip), vehicle: distilled water + Tween-80 88 % of control | dose: 12.5 mg/kg/injection, schedule: Q04DX003 (ip), vehicle: distilled water + Tween-80 92 % of control | dose: 25.0 mg/kg/injection, schedule: Q04DX003 (ip), vehicle: distilled water + Tween-80 88 % of control | dose: 50.0 mg/kg/injection, schedule: Q04DX003 (ip), vehicle: distilled water + Tween-80 97 % of control

Nc1nc2c(ncn2C2OC(COC(=O)Oc3ccccc3)C(O)C2O)c(=O)[nH]1 (stereo unspecified)
inactive: [1] 107 % of control | [2] 96 % of control | [3] 92 % of control

O=NN(CCCl)C(=S)Nc1ccccc1
inactive: dose: 100.0 mg/kg/injection, schedule: Q01DX001 (ip), vehicle: other 98 % of control | dose: 200.0 mg/kg/injection, schedule: Q01DX001 (ip), vehicle: other 98 % of control

CC1CCCN(N=Nc2ccc(Br)cc2-c2nc(N)c3cc(Br)ccc3n2)C1 (stereo unspecified)
inactive: dose: 100.0 mg/kg/injection, schedule: Q01DX001 (ip), vehicle: Klucel (hydroxypropylcellulose) (HPC) 103 % of control | dose: 400.0 mg/kg/injection, schedule: Q01DX001 (ip), vehicle: Klucel (hydroxypropylcellulose) (HPC) 90 % of control

Nc1ccc2ccccc2c1S(=O)(=O)O
inactive: [5] 102 % of control | [6] 93 % of control | [7] 90 % of control

O=C(CCC(=O)c1cccc([N+](=O)[O-])c1)NNc1ccc([N+](=O)[O-])cc1[N+](=O)[O-]
inactive: [8] 98 % of control | [9] 98 % of control | [10] 102 % of control

CCOC(=O)C1=C(C)NC(C)=C(C(=O)OCC)C1Cc1ccccc1
inactive: dose: 100.0 mg/kg/injection, schedule: Q01DX009 (ip), vehicle: other 106 % of control | dose: 200.0 mg/kg/injection, schedule: Q01DX009 (ip), vehicle: other 98 % of control | dose: 400.0 mg/kg/injection, schedule: Q01DX009 (ip), vehicle: other 104 % of control

CN(C)c1ccc(/C=C2\CCC/C(=C\c3ccc(N(C)C)cc3)C2=O)cc1
inactive: [2] 95 % of control | [3] 101 % of control | [4] 95 % of control

COc1ccc(Cc2c[n+](C)cc3cc(N=O)c(OC)cc23)cc1O
inactive: [11] 104 % of control | [12] 102 % of control
